Assays:
[1] = test system: wild-type BL21 (DE3, pLysS) strain; assay: Toxicity test of ICP in E. coli (growth curve, turbidity at 660 nm); format: cell-based; conditions: 100 ng/ml ICP, LB medium, 27° C. overnight, versus medium without ICP
Description: The BL21 (DE3, pLysS) strain was cultured at 30° C. overnight on an LB agar medium plate containing 37 μg/ml of chloramphenicol. The generated colonies were picked with a toothpick, inoculated and cultured in a 4 ml of the LB liquid culture medium containing 37 μg/ml of chloramphenicol at 27° C. overnight. 40 μl of this pre-cultured medium was inoculated and cultured in a 4 ml of the liquid culture medium containing 37 μg/ml of chloramphenicol and 100 ng/ml of ICP at 27° C. overnight, with measuring the time course of turbidity change using Mini photo 518R (TAITEC CORPORATION) at 660 nm.

[2] = test system: VH-cpBLA-VL/pET26/BL21 strain; assay: Growth assay using VH-cpBLA-VL expressing strain; format: cell-based, E. coli; conditions: 100 μg/ml ampicillin LB medium
Description: Also, for the growth assay, ICP which is the target antigen of this antibody-enzyme fusion protein, and the thiacloprid (TCP) which is an analog of ICP with a lower cross-reactivity than ICP were used. In further detail, the assay was performed by the following procedures.
First, the strain expressing VH-cpBLA-VL (antibody-enzyme fusion protein) was prepared.
0.5 μg of VH-cpBLA-VL/pET26 was used for transformation of 100 μl of the BL21 (DE3, pLysS) strain (F-, ompT, hsdSB, (rB-, mB-), dcm, gal, λ(DE3), pLysS, Cmr), and the transformed cells were cultured on an LB agar medium plate containing 50 μg/ml of kanamycin and 37 μg/ml of chloramphenicol at 30° C. overnight, to prepare an antibody-enzyme fusion protein expressing strain (VH-cpBLA-VL/pET26/BL21 strain). After the overnight culture, colonies generated on the above-mentioned LB agar medium plate were picked with a toothpick, inoculated and cultured in a 4 ml of the LB liquid culture medium plate containing 50 μg/ml of kanamycin and 37 μg/ml of chloramphenicol at 27° C. overnight. 4 μl of this pre-cultured medium was inoculated and cultured in 4 ml of the LB liquid culture medium containing 50 μg/ml of kanamycin and 37 μg/ml of chloramphenicol, 1 mM of IPTG, 0 or 100 μg/ml ampicillin, 0 to 10 ng/ml of ICP or TCP at 27° C. for 33 hours, with measuring the time course of turbidity change using Mini photo 518R at 660 nm.

[3] = test system: VH-split•cpBLA-VL/pET26/C43 strain; assay: Growth assay using VH-split•cpBLA-VL expressing strain; format: cell-based, E. coli
Description: (§1) By applying the assay of the above-mentioned Example 6, VH-split•cpBLA-VL/pET26 was used instead of VH-cpBLA-VL/pET26, and the E. coli C43 (DE3) strain (Lucigen Corporation) suitable for overexpression of a highly toxic protein was used instead of the BL21 (DE3, pLysS) strain, to investigate the expression in the strains. To be specific, 0.5 μg of VH-split•cpBLA-VL/pET26 was used for transformation for the C43 (DE3) strain, and the transformed cells were cultured on a LB agar medium plate containing 50 μg/ml of kanamycin at 30° C. overnight, and the VH-split•cpBLA-VL expressing strain (VH-split•cpBLA-VL/pET26/C43 strain) was prepared. After overnight culture, the colonies generated on the above-mentioned LB agar medium plate were picked with a toothpick, inoculated and cultured in a 4 ml of the LB liquid medium containing 50 […] (LBK) at 27° C. overnight. 10 μl of this pre-cultured medium was inoculated in 1 ml of the LBK liquid medium containing 1 mM of IPTG, 0 or 10 μg/ml of ampicillin, 10 ng/ml of ICP or TCP. After the cells were cultured at 27° C. for 45 hours, the turbidity was measured using Mini photo 518R at 660 nm.

[4] = test system: antibody-enzyme fusion protein (VH-cpBLA-VL); assay: β-lactamase activity change of VH-cpBLA-VL with chromogenic substrate Nitrocefin; format: biochemical; conditions: 5 μl of 10 μg/ml antigen, 1 mM Nitrocefin, room temperature 18 hours
Description: First, 5 μl of the concentrated VH-cpBLA-VL protein solution prepared in Example 9, 5 μl of 10 μg/ml ICP or TCP, and 90 μl of PBS containing 1 mM of Nitrocefin were mixed, and left in a dark place at a room temperature for 18 hours. Then, the absorbance at 490 nm of the reaction solution was measured to investigate the change in the β-lactamase activity. Further, absorbance at 490 nm was also measured when PBS was used instead of ICP or TCP (the item “PBS” in FIG. 12), or when VH-cpBLA-VL protein solution was not added (the item “Nitrocefin” in FIG. 12). […] In other words, the ICP-dependent increase of β-lactamase activity was observed.

[5] = test system: antibody-enzyme fusion protein (VH-cpBLA-VL); assay: β-lactamase activity change of VH-cpBLA-VL with fluorogenic substrate Fluorocillin; format: biochemical; conditions: 5 μl of 10 μg/ml antigen, 10 μM Fluorocillin, room temperature 30 minutes
Description: Next, a similar experiment was performed using a fluorogenic substrate Fluorocillin instead of the chromogenic substrate Nitrocefin. Specifically, 5 μl of concentrated VH-cpBLA-VL protein solution prepared in Example 9, and 5 of 10 μg/ml ICP or TCP were mixed, and incubated at 4° C. for 30 minutes. Then, 90 μl of PBS containing 10 μM Fluorocillin was added, and incubated at a room temperature for 30 minutes. The fluorescence at 535 nm with 435 nm excitation was measured using a microplate reader Genios Pro (Tecan Japan Co., Ltd.). […] In other words, the increase of the ICP-dependent β-lactamase activity was observed.

[6] = test system: antibody-enzyme fusion protein (VH-cpBLA-VL(219)); assay: Activity assay of VH-cpBLA-VL(219) using Fluorocillin; format: biochemical; conditions: triplicate; for change in signal intensity (fluorescence): antigen final concentration 1 μg/ml, compared with PBS
Description: Activity of the above prepared antibody-enzyme fusion protein (VH-cpBLA-VL(219)) was assayed using Fluorocillin. The antigen peptide BGP-C7 at a final concentration of 0-2000 ng/ml and the antibody-enzyme fusion protein at a final concentration of 300 nM were mixed in 50 μl of PBS, and the mixture was dispensed into black microplate wells. After adding 50 μL of 2 μM Fluorocillin in PBS, the mixture was incubated at 28° C. for 60 minutes, and read for its fluorescence intensity (intensity at 535 nm with excitation light irradiation at 485 nm). Also, control experiments were performed without antibody-enzyme fusion protein, and the fluorescence intensity of these wells was used for background subtraction. […] For information, the measurement of the present experiment was performed in triplicate. Black circles in FIG. 14 indicate the average value of the measured values and the error bars indicate 1SD.
Further, similar experiments were performed using a substance other than BGP-C7 (BGP-C8, BGP-C10, ICP, TCP with each final concentration of 1 μg/ml) as antigens.

[7] = test system: cpBLA/pET26/BL21 strain or cpBLA/pET26/C43 strain; assay: Growth assay using cpBLA expressing strain; format: cell-based, E. coli
Description: as §1

[8] = ELISA for antigen binding ability of the antibody-enzyme fusion protein; conditions: ICP-BSA versus BSA coated plates
Description: The following ELISA assay was performed to confirm whether the antibody-enzyme fusion protein (VH-cpBLA-VL) actually has a binding activity to the antigen (ICP).
PBS solution containing 10 μg/ml of ICP-BSA or BSA was dispensed into Falcon 3912 microplates by 100 μl each, and left at 4° C. for 16 hours. After discarding the solution from the microplates, 200 μl of PBS including 25% of Immunoblock was added and left at a room temperature for 2 hours for blocking. Next, after washing the microplates with PBS-T, […] of the purified antibody-enzyme fusion protein (VH-cpBLA-VL) prepared in the above-mentioned Example 9 and 100 μl of PBS containing 5% Immunoblock were added, and left at a room temperature for 90 minutes. In order to detect the antibody-enzyme fusion protein (VH-cpBLA-VL) bound to the solid-phase by the above preparation, the microplates were washed with PBS-T, and added with HRP labeled Penta-His (QIAGEN K.K., Tokyo) diluted in 1/2000 in PBS containing 5% Immunoblock. […] After incubation for 5 minutes in a dark place, the reaction was stopped by adding 50 μl of 3.2 N of H2SO4, and the absorbance was measured with a platereader (450 nm).
Also, the above-mentioned ELISA was applied for VH-split•cpBLA-VL(VH-BLAc and BLAn-VL) or cpBLA instead of using VH-cpBLA-VL, and the absorbance was measured similarly. […]

[9] = less than 100 μg/ml ICP or TCP added

O=[N+]([O-])NC1=NCCN1Cc1ccc(Cl)nc1 [ICP, imidacloprid]
toxicity or growth-promoting activity in E. coli [1]: no toxicity or growth-promoting activity | time after initiation of measurement from which growth was observed ([2]; ICP at 1 ng/ml): about 30 hours | growth of expressing strain (turbidity at 660 nm) ([2]; antigen at 1 ng/ml): dose-dependent growth | growth of expressing strain (turbidity at 660 nm) ([2]; antigen at 5 to 10 ng/ml): dose-dependent growth | growth of expressing strain (turbidity at 660 nm) ([3]; 10 μg/ml ampicillin, 10 ng/ml antigen, 27° C., 45 hours): ICP dependent-growth | growth of expressing strain (turbidity at 660 nm) [3, 9]: no significant growth | change in β-lactamase activity (absorbance at 490 nm) [4]: significant signal increase | change in β-lactamase activity (fluorescence at 535 nm) [5]: significant signal increase | change in signal intensity (fluorescence) [6]: only the same signal intensity as PBS

N#C/N=C1\SCCN1Cc1ccc(Cl)nc1 [TCP, thiacloprid]
time after initiation of measurement from which growth was observed ([2]; TCP, later than ICP of the same concentration): about 30 hours | growth of expressing strain (turbidity at 660 nm) ([2]; antigen at 10 ng/ml, similar to 1 ng/ml ICP): significant growth | growth of expressing strain (turbidity at 660 nm) [3, 9]: no significant growth | change in β-lactamase activity (absorbance at 490 nm) [4]: slight significant signal increase | change in signal intensity (fluorescence) [6]: only the same signal intensity as PBS

BGP-C7: antigen peptide (osteocalcin C-terminal peptide) recognised by antibody KTM219 (RRFYGPV)
change in fluorescence intensity (535 nm) ([6]; antigen 0-2000 ng/ml, 300 nM fusion protein, dose-dependent): significant increase of the fluorescence intensity

BGP-C8: BGP peptide detectable by open sandwich ELISA with KTM219 (YRRFYGPV)
change in signal intensity (fluorescence) [6]: increase of the signal intensity

BGP-C10: BGP peptide detectable by open sandwich ELISA with KTM219 (EAYRRFYGPV)
change in signal intensity (fluorescence) [6]: increase of the signal intensity

B1: cpBLA: circularly permutated β-lactamase without antibody domains (SEQ ID NO: 13), control (protein, listed as Escherichia coli)
chain: NEAIPNDERDTTMPAAMATTLRKLLTGELLTLASRQQLIDWMEADKVAGPLLRSALPAGWFIADKSGAGERGSRGIIAALGPDGKPSRIVVIYTTGSQATMDERNRQIAEIGASLIKHWDKSHPETLVKVKDAEDQLGARVGYIELDLNSGKILESFRPEERFPMMSTFKVLLCGAVLSRIDAGQEQLGRRIHYSQNDLVEYSPVTEKHLTDGMTVRELCSAAITMSDNTAANLLLTTIGGPKELTAFLHNMGDHVTRLDRWEPELNEA
growth of expressing strain ([7]; ampicillin added): growth was not observed in any of the samples | growth of expressing strain ([7]; ampicillin not added): growth was observed regardless of the presence or absence of the antigen | antigen-dependent growth ([7]; any of the cpBLA expressing strains): antigen-dependent growth was not observed | ELISA signal regardless of the presence or absence of ICP (antigen) [8]: similarly low signal

Source: patent US20100248267A1, “METHOD FOR MEASUREMENT OF CONCENTRATION OF ANTIGEN” (JAPAN SCIENCE AND TECHNOLOGY AGENCY, priority 2007, published 2010)
